≈ marks a conversion by molar mass, not a printed value. Calls of active or inactive are those of the source. No cut-off for these calls is given here.
Columns and labels:
[1] = Apparent permeability in human Caco-2 cells at 50 uM incubated for 120 mins by LC-MS/MS analysis; assay type: ADME, cell-based
[2] = biological target: Cytochrome P450 3A4 (Homo sapiens, UniProt P08684); assay: Inhibition of human liver microsomes CYP3A4 using midazolam or testosterone as substrate in presence of NADPH regenerating system by LC-MS/MS analysis; set-up: species or system Microsome
Sequence of Cytochrome P450 3A4 (P08684 whole entry, the tested form may be a part): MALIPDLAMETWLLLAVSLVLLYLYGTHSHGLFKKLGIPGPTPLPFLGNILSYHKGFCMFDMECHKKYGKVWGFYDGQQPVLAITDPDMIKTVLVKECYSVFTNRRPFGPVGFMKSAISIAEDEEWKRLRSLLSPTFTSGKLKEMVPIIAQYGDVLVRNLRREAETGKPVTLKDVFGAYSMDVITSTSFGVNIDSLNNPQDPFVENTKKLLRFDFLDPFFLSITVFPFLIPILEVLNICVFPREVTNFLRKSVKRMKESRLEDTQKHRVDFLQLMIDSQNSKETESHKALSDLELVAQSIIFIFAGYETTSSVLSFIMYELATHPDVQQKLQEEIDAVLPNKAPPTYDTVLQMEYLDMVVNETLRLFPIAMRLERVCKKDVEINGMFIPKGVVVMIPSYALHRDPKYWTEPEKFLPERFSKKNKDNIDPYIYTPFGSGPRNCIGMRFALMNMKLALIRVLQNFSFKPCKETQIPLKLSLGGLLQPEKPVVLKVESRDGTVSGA

[3] = biological target: Platelet-derived growth factor receptor beta (Homo sapiens, UniProt P09619); assay: Inhibition of wild type partial length human PDGFRbeta (V582 to Y1009 residues) expressed in bacterial expression system using Ulight-p70S6K peptide substrate incubated for 90 mins in presence of ATP by HTRF assay
Sequence of Platelet-derived growth factor receptor beta (P09619 whole entry, the tested form may be a part): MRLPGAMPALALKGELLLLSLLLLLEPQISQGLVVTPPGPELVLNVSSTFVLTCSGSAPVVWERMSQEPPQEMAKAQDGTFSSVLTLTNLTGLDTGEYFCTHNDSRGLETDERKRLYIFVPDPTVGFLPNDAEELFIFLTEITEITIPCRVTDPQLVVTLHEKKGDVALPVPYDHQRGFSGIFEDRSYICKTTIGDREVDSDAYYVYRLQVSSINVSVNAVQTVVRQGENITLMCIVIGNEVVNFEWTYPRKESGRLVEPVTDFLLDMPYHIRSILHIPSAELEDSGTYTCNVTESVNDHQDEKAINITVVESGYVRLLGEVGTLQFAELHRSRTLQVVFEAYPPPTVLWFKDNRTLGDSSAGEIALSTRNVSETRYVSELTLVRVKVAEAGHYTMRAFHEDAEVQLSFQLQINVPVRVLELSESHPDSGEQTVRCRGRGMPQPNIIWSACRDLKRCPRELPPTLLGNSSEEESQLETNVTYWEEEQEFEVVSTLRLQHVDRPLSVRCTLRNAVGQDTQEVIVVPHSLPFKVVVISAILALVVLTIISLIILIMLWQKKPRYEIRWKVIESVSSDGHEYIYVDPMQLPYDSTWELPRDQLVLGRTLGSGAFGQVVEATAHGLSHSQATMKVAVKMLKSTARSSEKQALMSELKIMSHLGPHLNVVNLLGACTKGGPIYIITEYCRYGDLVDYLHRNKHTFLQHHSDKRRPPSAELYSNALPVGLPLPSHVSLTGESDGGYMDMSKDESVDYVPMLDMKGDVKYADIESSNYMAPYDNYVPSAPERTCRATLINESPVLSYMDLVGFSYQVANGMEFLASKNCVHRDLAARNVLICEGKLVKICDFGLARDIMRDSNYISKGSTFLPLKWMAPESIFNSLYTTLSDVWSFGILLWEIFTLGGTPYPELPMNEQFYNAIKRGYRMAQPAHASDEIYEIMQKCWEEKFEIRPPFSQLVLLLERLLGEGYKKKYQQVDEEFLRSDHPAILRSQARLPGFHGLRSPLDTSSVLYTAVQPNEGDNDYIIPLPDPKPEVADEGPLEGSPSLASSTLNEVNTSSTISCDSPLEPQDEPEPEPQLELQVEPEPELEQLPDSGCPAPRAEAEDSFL

[4] = biological target: High affinity nerve growth factor receptor (Homo sapiens, UniProt P04629); assay: Inhibition of wild type partial length human TRKA (G475 to G790 residues) expressed in mammalian expression system using Ulight-p70S6K peptide substrate incubated for 90 mins in presence of ATP by HTRF assay
Sequence of High affinity nerve growth factor receptor (P04629 whole entry, the tested form may be a part): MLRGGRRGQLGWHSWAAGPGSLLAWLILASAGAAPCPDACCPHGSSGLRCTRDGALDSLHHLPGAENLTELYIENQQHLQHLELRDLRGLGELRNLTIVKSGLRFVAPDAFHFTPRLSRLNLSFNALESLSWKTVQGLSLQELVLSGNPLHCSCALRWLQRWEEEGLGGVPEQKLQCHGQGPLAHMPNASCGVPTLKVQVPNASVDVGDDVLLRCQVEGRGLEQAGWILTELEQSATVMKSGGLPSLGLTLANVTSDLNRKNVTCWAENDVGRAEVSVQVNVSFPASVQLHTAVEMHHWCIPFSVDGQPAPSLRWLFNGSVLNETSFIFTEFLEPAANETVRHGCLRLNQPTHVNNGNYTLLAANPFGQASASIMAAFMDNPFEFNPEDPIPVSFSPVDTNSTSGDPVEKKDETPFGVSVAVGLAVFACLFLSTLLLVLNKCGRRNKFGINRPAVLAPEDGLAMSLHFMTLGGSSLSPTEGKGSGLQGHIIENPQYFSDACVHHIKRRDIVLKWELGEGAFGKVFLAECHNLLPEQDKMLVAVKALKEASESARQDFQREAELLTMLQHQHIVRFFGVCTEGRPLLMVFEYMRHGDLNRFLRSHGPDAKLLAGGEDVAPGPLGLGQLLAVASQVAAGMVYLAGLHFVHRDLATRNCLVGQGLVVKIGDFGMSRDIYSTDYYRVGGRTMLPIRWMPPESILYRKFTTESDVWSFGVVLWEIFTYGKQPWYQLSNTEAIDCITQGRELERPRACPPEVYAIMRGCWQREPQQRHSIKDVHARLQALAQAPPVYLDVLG

[5] = biological target: Mast/stem cell growth factor receptor Kit (Homo sapiens, UniProt P10721); assay: Inhibition of wild type partial length human KIT (I571 to D952 residues) expressed in bacterial expression system using Ulight-p70S6K peptide substrate incubated for 90 mins in presence of ATP by HTRF assay
Sequence of Mast/stem cell growth factor receptor Kit (P10721 whole entry, the tested form may be a part): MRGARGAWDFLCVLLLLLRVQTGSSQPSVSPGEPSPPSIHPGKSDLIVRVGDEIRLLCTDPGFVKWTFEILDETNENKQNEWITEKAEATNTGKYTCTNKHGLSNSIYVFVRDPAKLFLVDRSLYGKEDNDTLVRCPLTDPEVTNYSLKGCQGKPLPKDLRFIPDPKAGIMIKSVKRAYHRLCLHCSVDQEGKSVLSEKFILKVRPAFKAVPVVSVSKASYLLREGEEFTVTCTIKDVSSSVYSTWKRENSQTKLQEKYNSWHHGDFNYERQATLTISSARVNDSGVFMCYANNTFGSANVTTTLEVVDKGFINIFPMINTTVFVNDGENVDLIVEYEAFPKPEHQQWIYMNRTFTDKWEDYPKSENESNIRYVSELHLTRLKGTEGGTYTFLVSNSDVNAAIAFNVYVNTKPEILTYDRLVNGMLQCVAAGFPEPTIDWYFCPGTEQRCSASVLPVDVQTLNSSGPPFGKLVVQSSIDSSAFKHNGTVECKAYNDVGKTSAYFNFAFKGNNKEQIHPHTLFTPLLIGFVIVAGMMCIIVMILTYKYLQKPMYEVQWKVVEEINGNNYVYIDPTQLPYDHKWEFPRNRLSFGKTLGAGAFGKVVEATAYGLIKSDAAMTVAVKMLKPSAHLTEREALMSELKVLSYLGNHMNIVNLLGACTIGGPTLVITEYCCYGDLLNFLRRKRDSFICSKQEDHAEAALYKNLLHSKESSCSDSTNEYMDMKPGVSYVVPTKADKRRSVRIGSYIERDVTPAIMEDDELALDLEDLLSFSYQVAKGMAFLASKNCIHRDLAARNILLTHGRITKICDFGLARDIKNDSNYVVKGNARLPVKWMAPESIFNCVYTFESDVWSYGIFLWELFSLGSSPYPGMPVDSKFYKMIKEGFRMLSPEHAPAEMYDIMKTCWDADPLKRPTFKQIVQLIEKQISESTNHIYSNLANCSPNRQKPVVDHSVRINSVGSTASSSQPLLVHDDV

[6] = biological target: CYP3A4 (Homo sapiens, UniProt P08684); assay: Inhibition of human liver microsomes CYP3A4 at 5 uM using midazolam or testosterone as substrate in presence of NADPH regenerating system by LC-MS/MS analysis relative to control; assay type: ADME, Microsome; details: probe midazolam or testosterone
Sequence of CYP3A4 (P08684 whole entry): as the sequence (P08684 whole entry, the tested form may be a part) above

[7] = Oral bioavailability in Sprague-Dawley rat at 3.1 mg/kg measured upto 24 hrs by LC-MS/MS analysis; assay type: ADME, organism-based; details: in vivo
[8] = Volume of distribution at steady state in Sprague-Dawley rat at 0.73 mg/kg, iv measured upto 24 hrs by LC-MS/MS analysis; assay type: ADME, organism-based; details: in vivo, read-out: Vdss
[9] = Clearance in Sprague-Dawley rat assessed as hepatic blood flow at 0.73 mg/kg, iv measured upto 24 hrs by LC-MS/MS analysis; assay type: ADME, organism-based; details: in vivo
[10] = Half life in Sprague-Dawley rat at 0.73 mg/kg, iv measured upto 24 hrs by LC-MS/MS analysis; assay type: ADME, organism-based; details: in vivo
[11] = Solubility of compound in SGF by HPLC assay; assay type: physicochemical
[12] = Cmax in Sprague-Dawley rat at 3.1 mg/kg, po measured upto 24 hrs by LC-MS/MS analysis; assay type: ADME, organism-based; set-up: time < 24 hrs, dose 3.1 mg/kg, route po; details: in vivo
[13] = Solubility of compound in FaSSIF by HPLC assay; assay type: physicochemical
[14] = AUC in Sprague-Dawley rat at 3.1 mg/kg, po measured upto 24 hrs by LC-MS/MS analysis; assay type: ADME, organism-based; set-up: time < 24 hrs, dose 3.1 mg/kg, route po; details: in vivo
[15] = test system: Mus musculus; assay: In vivo inhibition of ERK phosphorylation in human UMUC14 cells xenografted with NSG mouse at 100 mg/kg, po measured after 2 hrs by MSD assay; assay type: functional, organism-based
[16] = biological target: Fibroblast growth factor receptor 2 (Homo sapiens, UniProt P21802); assay: Inhibition of N-terminal GST tagged recombinant human FGFR2 (400 to 821 residues) expressed in an Sf9 infected baculovirus expression system using biotin-EQEDEPEGDYFEWLE-amide as substrate preincubated for 5 to 10 mins followed by substrate addition and measured after 1 hr by HTRF assay
Sequence of Fibroblast growth factor receptor 2 (P21802 whole entry, the tested form may be a part): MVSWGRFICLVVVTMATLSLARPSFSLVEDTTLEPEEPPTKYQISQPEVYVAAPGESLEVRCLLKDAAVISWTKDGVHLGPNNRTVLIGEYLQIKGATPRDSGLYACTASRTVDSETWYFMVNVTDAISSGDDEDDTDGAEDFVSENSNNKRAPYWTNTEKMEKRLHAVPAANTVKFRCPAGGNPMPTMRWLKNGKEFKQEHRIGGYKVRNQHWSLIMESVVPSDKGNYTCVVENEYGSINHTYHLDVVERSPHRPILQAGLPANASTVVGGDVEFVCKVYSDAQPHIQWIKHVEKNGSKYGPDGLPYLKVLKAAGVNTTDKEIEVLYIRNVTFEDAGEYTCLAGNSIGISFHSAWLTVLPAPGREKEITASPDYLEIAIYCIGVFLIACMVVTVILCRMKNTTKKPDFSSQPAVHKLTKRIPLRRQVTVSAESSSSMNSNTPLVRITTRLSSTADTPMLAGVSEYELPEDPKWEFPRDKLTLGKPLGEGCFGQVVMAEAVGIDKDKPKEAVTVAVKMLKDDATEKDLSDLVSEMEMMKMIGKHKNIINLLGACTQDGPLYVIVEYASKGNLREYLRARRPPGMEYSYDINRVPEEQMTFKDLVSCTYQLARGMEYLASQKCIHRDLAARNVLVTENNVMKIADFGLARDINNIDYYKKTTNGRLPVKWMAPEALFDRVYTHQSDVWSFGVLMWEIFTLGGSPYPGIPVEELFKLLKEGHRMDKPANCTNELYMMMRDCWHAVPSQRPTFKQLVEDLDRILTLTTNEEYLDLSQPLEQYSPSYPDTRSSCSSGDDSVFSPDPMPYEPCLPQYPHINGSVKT

[17] = biological target: Fibroblast growth factor receptor 4 (Homo sapiens, UniProt P22455); assay: Inhibition of recombinant human FGFR4 (460 to 802 residues) using biotin-EQEDEPEGDYFEWLE-amide as substrate preincubated for 5 to 10 mins followed by substrate addition and measured after 1 hr by HTRF assay
Sequence of Fibroblast growth factor receptor 4 (P22455 whole entry, the tested form may be a part): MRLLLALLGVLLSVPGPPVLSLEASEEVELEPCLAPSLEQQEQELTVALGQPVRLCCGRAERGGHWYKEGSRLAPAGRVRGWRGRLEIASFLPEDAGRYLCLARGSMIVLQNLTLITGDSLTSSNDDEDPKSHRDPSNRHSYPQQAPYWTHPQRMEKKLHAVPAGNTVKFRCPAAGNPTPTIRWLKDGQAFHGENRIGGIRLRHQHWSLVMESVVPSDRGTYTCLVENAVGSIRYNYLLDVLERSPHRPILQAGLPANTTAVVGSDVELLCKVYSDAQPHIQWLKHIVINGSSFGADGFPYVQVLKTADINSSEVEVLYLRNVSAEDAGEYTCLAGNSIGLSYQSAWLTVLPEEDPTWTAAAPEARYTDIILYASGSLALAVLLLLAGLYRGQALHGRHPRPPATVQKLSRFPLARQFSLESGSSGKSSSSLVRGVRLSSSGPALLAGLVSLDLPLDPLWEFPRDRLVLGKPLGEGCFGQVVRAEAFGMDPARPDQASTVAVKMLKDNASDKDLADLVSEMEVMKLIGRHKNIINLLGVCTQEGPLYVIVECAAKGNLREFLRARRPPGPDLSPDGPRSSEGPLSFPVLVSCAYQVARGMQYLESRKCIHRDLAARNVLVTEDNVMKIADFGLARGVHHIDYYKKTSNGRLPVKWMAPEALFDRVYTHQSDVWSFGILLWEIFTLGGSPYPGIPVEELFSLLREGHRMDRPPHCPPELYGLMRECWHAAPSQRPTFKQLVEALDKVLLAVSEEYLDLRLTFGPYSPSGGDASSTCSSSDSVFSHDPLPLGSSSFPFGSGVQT

Papp at 2 h, 50 µM [1] [×10⁻⁶ cm/s] | IC50 [2] [nM] | IC50 [3] [nM] | IC50 [4] [nM] | IC50 [5] [nM] | Compound | other results
0.6 | > 25000 |  |  |  | CCNC(=O)c1cncc(-c2cnn3cc(-c4cnn(CC)c4)c(O[C@H]4CCOC4)nc23)c1 | 
 | > 5000 | 370 | 7300 | 284 | CNC(=O)c1cncc(-c2cnc3cc(-c4cnn(C)c4)c(OC4CCOC4)nn23)c1 (configuration not stated) | inhibition at 5 µM [6]: 0%
0.2 | > 5000 |  |  |  | CNC(=O)c1cncc(-c2cnn3cc(-c4cnn(C)c4)c(OC4CCOC4)nc23)c1 (racemic) | inhibition at 5 µM [6]: 15%
1.5 | 9000 |  |  |  | CNC(=O)c1cncc(-c2cnn3cc(-c4cnn(C(C)C)c4)c(O[C@H]4CCOC4)nc23)c1 | Activity [15]: Active; solubility [11]: > 400 µg/mL; solubility [13]: 17 µg/mL (≈ 38 µM)
2 | > 25000 |  |  |  | [2H]C([2H])([2H])NC(=O)c1cncc(-c2cnn3cc(-c4cnn(C(C)C)c4)c(O[C@H]4CCOC4)nc23)c1 | bioavailability [7]: 82%; Vd [8]: 1.6 L/kg; QH [9]: 35%; half-life [10]: 1.7 h; solubility [11]: 679 µg/mL (≈ 1510 µM); IC50 [17]: 145 nM; Cmax [12]: 2.3 µM; solubility [13]: 18 µg/mL (≈ 40 µM); AUC at 24 h [14]: 5.11 µM·h

The next lines start with the compound.

Compound | Papp at 2 h, 50 µM [1] [×10⁻⁶ cm/s] | IC50 [2] [nM] | IC50 [3] [nM] | IC50 [4] [nM] | IC50 [5] [nM] | other results
CNC(=O)c1cccc(-c2cnc3cc(-c4cnn(C)c4)c(OC)nn23)c1 |  |  | 38 | 58 |  | 
CNC(=O)c1cc(C)cc(-c2cnc3cc(-c4cnn(C(C)C)c4)c(O[C@H]4CCOC4)nn23)c1 |  |  | 126 | 363 | 22 | 
CNC(=O)c1ccc(F)c(-c2cnc3cc(-c4cnn(C)c4)c(OC)nn23)c1 |  |  | 348 | 11 | 180 | 
CNC(=O)c1cc(F)c(F)c(-c2cnc3cc(-c4cnn(C)c4)c(O[C@H]4CCOC4)nn23)c1 | 5.7 | 3900 | 1740 | 285 | 1450 | bioavailability [7]: 54%; Vd [8]: 0.35 L/kg; QH [9]: 3.3%; half-life [10]: 5.3 h; solubility [11]: > 400 µg/mL; Cmax [12]: 6.17 µM; solubility [13]: 118 µg/mL (≈ 260 µM); AUC at 24 h [14]: 33.6 µM·h
CNC(=O)c1cc(C)c(F)c(-c2cnc3cc(-c4cnn(C)c4)c(O[C@H]4CCOC4)nn23)c1 |  |  | 1390 | 293 | 1660 | 
CNC(=O)c1cc(-c2cnc3cc(-c4cnn(C)c4)c(O[C@H]4CCOC4)nn23)c(F)c(C(F)F)c1 |  |  | 800 | 443 | 619 | 
[2H]C([2H])([2H])NC(=O)c1cncc(-c2cnn3cc(-c4ccn(C(C)C)n4)c(N[C@H]4CCOC4)nc23)c1 |  |  |  |  |  | IC50 [16]: 0.2 nM
CNC(=O)c1cccc(-c2cnc3cc(-c4cnn(C)c4)c(O[C@H]4CCOC4)nn23)c1 |  |  | 66 | 118 | 82 | 

From ChEMBL document CHEMBL5096240, “Discovery of Potent and Selective Inhibitors of Wild-Type and Gatekeeper Mutant Fibroblast Growth Factor Receptor (FGFR) 2/3” (J Med Chem, 2022)
